Assay results published in patent publication US20260136597A1, “PHARMACEUTICAL COMPOSITION FOR PREVENTING OR TREATING A PERIODONTAL DISEASE OR DISLOCATED TRAUMATIC TOOTH” (HYSENSBIO Co., Ltd., priority 2020, published 2026).

Experiments:
BSP = test: Real-time PCR, BSP gene expression in human periodontal ligament cells; type: cell-based; conditions: hPDL cells, average of three experiments
Description: Human periodontal ligament cells (hPDL cells) were isolated from periodontal ligament tissues from the wisdom teeth of 10 adults (18-22 years old) at Seoul National University Dental Hospital. Specifically, all experiments were performed with the consent of the patient after obtaining approval from the Hospital's Institutional Review Board, a periodontal ligament tissue attached to the root of a wisdom tooth was isolated and cut into double-sided pieces, placed in a 60 mm dish, and covered with a cover slip, and then cultured in Dulbecco's degenerated Eagle's Medium.

CAP = conditions: hPDL cells; real-time PCR; average of three experiments
Description: Human periodontal ligament cells (hPDL cells) were isolated from periodontal ligament tissues from the wisdom teeth of 10 adults (18-22 years old) at Seoul National University Dental Hospital. Specifically, all experiments were performed with the consent of the patient after obtaining approval from the Hospital's Institutional Review Board, a periodontal ligament tissue attached to the root of a wisdom tooth was isolated and cut into double-sided pieces, placed in a 60 mm dish, and covered with a cover slip, and then cultured in Dulbecco's […] Eagle's Medium.
Total RNA from human periodontal ligament cells was isolated using a TRIzol reagent. cDNA was synthesized using 2 μg of total RNA, 1 μl of reverse transcriptase, and 0.5 μg of oligo (dT). cDNA of synthesized human periodontal ligament cells was used for a real-time polymerase chain reaction using primers shown in Table 2 below. A real-time polymerase chain reaction was performed in ABI PRISM 7500 sequence detection system (Applied Biosystems) using SYBR GREEN PCR Master Mix (Takara, Japan). The real-time polymerase chain reaction was performed at 94° C., 1 min; 95° C., 15 sec-60° C., 34 sec was performed under the condition of repeating 40 cycles. Results were analyzed using a comparative cycle threshold (CT) method.
Bone sialoprotein (BSP) and dentin matrix protein 1 (DMP1) genes are used as markers for the differentiation of osteoblast and cementoblast and are known as important genes for the calcification of a bone and cementum. In addition, a CAP (cementum attachment protein) gene is expressed in differentiated cementoblast and is known as a gene involved in the cementum attachment of a periodontal ligament fiber bundle.

PERIOSTIN = test: Real-time PCR, periostin gene expression in human periodontal ligament cells; type: cell-based; conditions: hPDL cells, average of three experiments
Source text: Periostin is a protein first discovered in a periodontal ligament and periosteum of a bone, and periostin is expressed in the periodontal ligament and mesenchymal of the developing tooth and is known to be involved in cell adhesion. According to several recent studies, periostin is an important regulator of periodontium formation, promotes collagen fiber production and migration of fibroblast and osteoblast, and it is known to play a pivotal role in the regeneration of periodontal ligament and alveolar bone after periodontal surgery to treat periodontal disease. Therefore, the effect of a peptide of Example 1 on the expression of periostin which is a marker gene for a periodontal ligament differentiation, and the type 3 collagen fiber gene (COL3) was confirmed.

[1] = system: three-wall periodontal defect; test: Periodontium regeneration in periodontium damage animal model, histological evaluation; type: in vivo, beagle dogs; conditions: beagle dog, 3 months
Description: Four beagle dogs (12-16 kg; […]) were anesthetized by inhalation of Geloran, intravenously injected with Zoletil (5 mg/kg) and Xylazine (0.2-0.5 mg/kg), and then treated with Lidocaine (Lidocaine 2% with 1:80,000 epinephrine). The 4th premolar tooth and the 2nd molar tooth were extracted from the mandible of the beagle dog, and then the dog waited for healing for 3 months. After 3 months of healing, three-wall periodontal defect was induced on distal and mesial surfaces of a 1st molar tooth. Then, a periodontal damage of 4×4×4 mm was formed with the buccal and distal bones remaining around the tooth root, the root alveolar bone is securely removed, tooth root planing was performed using a curette, and then an incisor groove was formed using a ½ round bur. Next, an experimental group was transplanted with a collagen sponge (a peptide solution obtained by dissolving a peptide in physiological saline at a concentration of 1 μg/μl was prepared, 50 μl of a peptide solution was added to the EP tube, and then was soaked for 5 minutes to prepare the collagen sponge) including a 50 μl of peptide (SEQ ID NO: 16 of group 2) prepared in Example 1 at a defect region, After the defect, only a negative control (NC) without any treatment and a collagen sponge (prepared by soaking a collagen sponge in 50 μl of physiological saline for 5 minutes) was placed on the inner bone wall of a bone defect and a transplanted negative control (NC+Plug) was sacrificed 3 months later, and histological evaluation was performed. After 3 months, a beagle dog was sacrificed by administering an excessive amount (90-120 mg/kg) of pentobarbital. A tooth of the beagle dog was extracted, fixed with 10% formalin, and then calcium was removed by adding 5% formic acid, molded, and embedded in paraffin, to obtain a tissue section with a thickness of 5 μm. The obtained tissue section was stained with hematoxylin and eosin or collagen stained (Masson's Trichrome Staining) to confirm periodontal ligament regeneration and then analyzed using by an optical microscope equipped with a digital camera (LEICA ICC50 camera, Germany). After extraction of a 4th premolar tooth and a 2nd molar tooth from the mandibles of 4 beagle dogs, they waited for 3 months to heal, and After 3 months of healing, the 3-mural periodontal defect was induced in distal and mesial surfaces of a 1st molar tooth. Then, periodontium damage of 4×4×4 mm was formed with the buccal and distal bones remaining around the tooth root, the root alveolar bone is securely removed, tooth root planing was performed using a curette, and then an incisor groove was formed. Next, the experimental group transplanted a collagen sponge containing 50 μg of the peptide (SEQ ID NO: 16) of Example 1 to the defect region, and after the defect, a negative control (NC) without any treatment and control (NC+Plug) transplanted by placing only a collagen sponge on the inner bone wall of the bone defect was sacrificed 3 months later for histological evaluation.

[2] = collagen sponge with 50 μg peptide, Masson's trichrome stain, FIG. 6
[3] = collagen sponge with 50 μg peptide, hematoxylin/eosin, FIG. 5

| Sequence | BSP gene expression, relative mRNA expression level compared to the control (Average) (BSP) | CAP gene expression, relative mRNA expression level compared to the control (Average) (CAP) | PERIOSTIN gene expression, relative mRNA expression level compared to the control (Average) (PERIOSTIN) | further results |
| --- | --- | --- | --- | --- |
| KYKQKKKNYK [SEQ ID NO 5] | 2.67 | 2.67 | 2.67 |  |
| KYKQKKKSYK [SEQ ID NO 13] | 2.525 | 2.525 | 2.525 |  |
| KYKQKKRNYK [SEQ ID NO 7, Group 1 peptide, 8th amino acid asparagine (N)] | 2.215 | 2.451 | 2.329 |  |
| KYKQKKRSYK [SEQ ID NO 15] | 2.620 | 2.620 | 2.620 |  |
| KYKQKRKNYK [SEQ ID NO 6] | 2.705 | 2.705 | 2.705 |  |
| KYKQKRKSYK [SEQ ID NO 14] | 2.836 | 2.836 | 2.836 |  |
| KYKQKRRNYK [SEQ ID NO 8] | 2.021 | 2.021 | 2.021 |  |
| KYKQKRRSYK [SEQ ID NO 16, Group 2 peptide, 8th amino acid serine (S)] | 2.606 | 2.467 | 2.403 | Alveolar bone regeneration ([1]; collagen sponge with 50 μg peptide at defect, hematoxylin/eosin, FIG. 4): alveolar bone was regenerated in most of the damage periodontium; Incorporation of new periodontal ligament fiber bundle into alveolar bone and cementum [1, 2]: A new periodontal ligament fiber bundle was vertically incorporated in the newly formed alveolar bone and cementum; New cementum-like tissue formation [1, 2]: new cementum-like tissue was observed along a tooth root surface; New periodontal ligament-like tissue formation [1, 2]: new periodontal ligament-like tissue formation was also observed; Incorporation of new periodontal ligament into alveolar bone and cementum [1, 3]: New periodontal ligament was incorporated in the newly formed alveolar bone and cementum; New cementum-like tissue formation [1, 3]: new cementum-like tissue was observed along a tooth root surface; New periodontal ligament-like tissue formation [1, 3]: new periodontal ligament-like tissue formation was also observed |
| KYKQRKKNYK [SEQ ID NO 1] | 2.092 | 2.092 | 2.092 |  |
| KYKQRKKSYK [SEQ ID NO 9] | 2.211 | 2.211 | 2.211 |  |
| KYKQRKRNYK [SEQ ID NO 2] | 2.361 | 2.361 | 2.361 |  |
| KYKQRKRSYK [SEQ ID NO 10] | 2.811 | 2.811 | 2.811 |  |
| KYKQRRKNYK [SEQ ID NO 3] | 2.572 | 2.572 | 2.572 |  |
| KYKQRRKSYK [SEQ ID NO 11] | 2.362 | 2.362 | 2.362 |  |
| KYKQRRRNYK [SEQ ID NO 4] | 2.702 | 2.702 | 2.702 |  |
| KYKQRRRSYK [SEQ ID NO 12] | 2.211 | 2.211 | 2.211 |  |
